Assay [1] relates to RPMI-8226. Briefly: NCI 60 cell line screen. The class given is cell-based, human. Particulars: Homo sapiens; RPMI-8226, Leukemia; read-out: Percent growth. An outline of the steps: (§1)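 Human tumour lines were grown in RPMI 1640 with 5% FBS and 2 mM L-glutamine, then exposed 48 h at 37 °C to five concentrations (max 10 µM) after 24 h pre-incubation. Growth was measured by sulforhodamine B protein staining at 515 nm relative to time-zero and untreated controls.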

Assay [2] deals with HT29. In words: NCI 60 cell line screen. The class given is cell-based, human. Particulars: Homo sapiens, HT-29; HT29, Colon Cancer; read-out: Percent growth. The gist of the method: (§2)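 Read-out was SRB staining of TCA-fixed cells at 515 nm, with growth computed against time-zero (Tz) and untreated control plates; TGI was taken where Ti = Tz. Drugs were tested at five concentrations up to 10 µM for 48 h at 37 °C, added 24 h after plating in RPMI 1640/5% FBS.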

Assay [3] relates to OVCAR-4. Briefly: NCI 60 cell line screen. The class given is cell-based, human. Particulars: Homo sapiens; OVCAR-4, Ovarian Cancer; read-out: Percent growth. An outline of the steps: as §1
For assay [4], the system named is T-47D. Briefly: NCI 60 cell line screen. The class given is cell-based, human. The conditions noted are these: for activity at 10 µM: Homo sapiens, T47D, Breast Cancer, read-out: Percent growth. The gist of the method:
as §1

In assay [5] the test system is KM12. In words: NCI 60 cell line screen. It is filed as cell-based, human. The conditions noted are these: Homo sapiens; KM12, Colon Cancer; read-out: Percent growth. An outline of the steps:
as §1

Assay [6] relates to PC-3. In words: NCI 60 cell line screen. The class given is cell-based, human. The conditions noted are these: Homo sapiens; PC-3, Prostate Cancer; read-out: Percent growth. The gist of the method: as §2
The subject of assay [7] is SNB-75. Briefly: NCI 60 cell line screen. The conditions noted are these: Homo sapiens; SNB-75, CNS-Cancer; read-out: Percent growth. It is filed as cell-based, human. The gist of the method:
as §2

In assay [8] the test system is HCT-15. Briefly: NCI 60 cell line screen. The class given is cell-based, human. The conditions noted are these: Homo sapiens; HCT-15, Colon Cancer; read-out: Percent growth. An outline of the steps: as §2
Assay [9] relates to UO-31. In words: NCI 60 cell line screen. The class given is cell-based, human. Particulars: Homo sapiens; UO-31, Renal Cancer; read-out: Percent growth. An outline of the steps: as §2
The test system of assay [10] is CAKI-1. In words: NCI 60 cell line screen. It is filed as cell-based, human. The conditions noted are these: Homo sapiens; CAKI-1, Renal Cancer; read-out: Percent growth. An outline of the steps: as §2
Assay [11] has as its system MOLT-4. In words: NCI 60 cell line screen. The conditions noted are these: for activity at 10 µM: Homo sapiens, MOLT-4, Leukemia, read-out: Percent growth. The class given is cell-based, human. An outline of the steps: as §1
Assay [12] deals with NCI-H460. Briefly: NCI 60 cell line screen. It is filed as cell-based, human. The conditions noted are these: Homo sapiens; NCI-H460, Non-Small Cell Lung Cancer; read-out: Percent growth. The gist of the method:
as §2

For assay [13], the target named is T1, V600EBRAF (Homo sapiens, UniProt P15056, V600E).
T1 construct: purchased Reaction Biology Corp. (Kinase HotSpot service)
T1 sequence (P15056 whole entry V600E): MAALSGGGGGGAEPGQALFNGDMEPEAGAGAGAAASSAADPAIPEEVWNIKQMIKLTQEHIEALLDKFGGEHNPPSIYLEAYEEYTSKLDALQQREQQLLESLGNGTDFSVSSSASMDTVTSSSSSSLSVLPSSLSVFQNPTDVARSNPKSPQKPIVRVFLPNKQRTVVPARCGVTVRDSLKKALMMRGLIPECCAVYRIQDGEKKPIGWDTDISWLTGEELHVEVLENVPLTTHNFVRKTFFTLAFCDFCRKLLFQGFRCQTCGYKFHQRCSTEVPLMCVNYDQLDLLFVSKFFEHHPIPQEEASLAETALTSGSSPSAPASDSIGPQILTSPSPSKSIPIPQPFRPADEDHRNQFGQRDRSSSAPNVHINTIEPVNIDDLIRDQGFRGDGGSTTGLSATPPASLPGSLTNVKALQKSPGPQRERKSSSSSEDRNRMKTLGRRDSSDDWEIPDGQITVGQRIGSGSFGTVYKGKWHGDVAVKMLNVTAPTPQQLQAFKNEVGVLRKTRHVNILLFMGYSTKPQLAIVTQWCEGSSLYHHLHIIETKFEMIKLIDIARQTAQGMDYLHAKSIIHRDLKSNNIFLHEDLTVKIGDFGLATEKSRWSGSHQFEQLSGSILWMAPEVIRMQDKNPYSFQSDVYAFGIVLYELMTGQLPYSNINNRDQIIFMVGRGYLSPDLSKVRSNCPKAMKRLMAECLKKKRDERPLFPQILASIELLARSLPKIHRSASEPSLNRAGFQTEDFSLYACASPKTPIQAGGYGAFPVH
Briefly: Reaction Biology kinase HotSpot enzyme assay. Particulars: 1 µM ATP; for IC50: mean ± S.D. of two separate experiments; for % Inhibition at 1 µM over V600EBRAF / inhibition at 1 µM: single dose 1 µM, mean ± S.D. of two experiments; for inhibition at 1 µM: read-out: % Inhibition at 1 µM over V600EBRAF. The class given is biochemical.

Assay [14] concerns OVCAR-8. In words: NCI 60 cell line screen. It is filed as cell-based. Particulars: Homo sapiens; OVCAR-8, Ovarian Cancer; read-out: Percent growth. The gist of the method:
as §1

The subject of assay [15] is OVCAR-3. In words: NCI 60 cell line screen. It is filed as cell-based. Particulars: Homo sapiens; OVCAR-3, Ovarian Cancer; read-out: Percent growth. The gist of the method:
as §1

In assay [16] the test system is CCRF-CEM. Briefly: NCI 60 cell line screen. The conditions noted are these: Homo sapiens, Leukemia, read-out: Percent growth. The class given is cell-based. The gist of the method:
as §1

For `COc1ccc(S(=O)(=O)NCCCNc2nccc(-n3cnc4ccccc43)n2)cc1` [12m, N-(3-((4-(1H-benzo [d]imidazol-1-yl)pyrimidin-2-yl)amino)propyl)-4-methoxy benzenesulfonamide], the activity at 10 µM was 78.6% in assay [1]; 99.7% in assay [2]; 77.4% in assay [3]; 66.3% in assay [4]; 84.1% in assay [5]; 89.7% in assay [6]. The activity at 10 µM is 88.2% in assay [7]; 92.3% in assay [8]; 67.2% in assay [9]; 68.8% in [10]; 77% in assay [11]; 97.3% in assay [12]. Further, the results for the activity at 10 µM in [14], in assay [15] and in assay [16] were 93.7%, 105% and 91.4%, respectively. In assay [13], the IC50 (in general, the concentration needed to halve the response being measured) worked out at 820 ± 48 nM. The % Inhibition (commonly the drop in the measured response relative to a control, in per cent) at 1 µM over V600EBRAF in assay [13] was found to be 51.26 ± 0.29%. Besides, the inhibition (commonly the change of the read-out against control, counted positive when it falls) at 1 µM in assay [13] came to 51%.
In the case of `O=S(=O)(NCCCNc1nccc(-n2cnc3ccccc32)n1)c1cccc2ccccc12` [12n, N-(3-((4-(1H-benzo [d]imidazol-1-yl)pyrimidin-2-yl)amino)propyl)naphthalene-1-sulfonamide], the activity at 10 µM in assay [1] is 69.7%; in assay [2], 96.3%; in [3], 66.7%; in assay [4], 44.7%; in [5] it was 79.8%; in assay [6], 66.7%. The activity at 10 µM in assay [7] was determined as 87.2%; in assay [8], 81.8%; in assay [9], 60.7%; in assay [10], 60.5%; in [11], 67%; in assay [12], 89.8%. Moreover, the activity at 10 µM in [14] turned out to be 82.5%; in assay [15], 96.8%; in [16], 70.9%. For the same compound, the percent inhibition in assay [4] (NCI-60 heat map analysis) is given as 56%; in assay [11] (MOLT-4, NCI-60 heat map analysis), “around 30%”. The compound further gave an IC50 in assay [13] of 1280 ± 144 nM. In addition, the “% Inhibition at 1 µM over V600EBRAF” value in [13] is recorded as 41.27 ± 0.46%. In [13], the inhibition at 1 µM turned out to be 41%.
